From the NIST ThermoML archive (doi:10.1016/j.jct.2016.09.007)

Assay: xn = mol fraction of the nth substance listed
Conditions: 93.2 kPa, Liquid; for speed of sound: Frequency=3 MHz, Sing-around technique in a fixed-path interferometer; for mass density: Vibrating tube method

CCCC(=O)[O-].CCCC[NH3+] [n-butylammonium butanoate] + CCCCCO
Conditions	mass density, 293.15 K [kg/m3]	mass density, 298.15 K [kg/m3]	mass density, 303.15 K [kg/m3]	mass density, 308.15 K [kg/m3]	mass density, 313.15 K [kg/m3]	speed of sound, 293.15 K [m/s]	speed of sound, 298.15 K [m/s]	speed of sound, 303.15 K [m/s]	speed of sound, 308.15 K [m/s]	speed of sound, 313.15 K [m/s]
x1 = 0.0504	824.946	821.27	817.568	813.834	810.063	1301.5	1284.3	1267.3	1250.4	1233.7
x1 = 0.1004	834.049	830.391	826.701	822.985	819.232	1308.8	1291.6	1274.6	1257.6	1240.9
x1 = 0.1491	842.19	838.55	834.886	831.191	827.462	1315.5	1298.2	1281.2	1264.2	1247.4
x1 = 0.2025	850.502	846.885	843.247	839.579	835.881	1322.6	1305.3	1288.2	1271.2	1254.4
x1 = 0.2513	857.492	853.902	850.29	846.65	842.977	1328.8	1311.6	1294.5	1277.5	1260.7
x1 = 0.3007	864.133	860.568	856.983	853.372	849.736	1335	1317.8	1300.7	1283.7	1267
x1 = 0.3506	870.527	866.989	863.432	859.854	856.248	1341.3	1324.1	1307.1	1290.2	1273.4
x1 = 0.4003	876.48	872.967	869.437	865.888	862.315	1347.5	1330.3	1313.3	1296.4	1279.8
x1 = 0.4485	881.984	878.492	874.989	871.466	867.921	1353.3	1336.2	1319.2	1302.4	1285.7
x1 = 0.4981	887.228	883.761	880.283	876.786	873.27	1359.2	1342.1	1325.1	1308.3	1291.8
x1 = 0.549	892.419	888.971	885.516	882.044	878.557	1365.4	1348.2	1331.3	1314.5	1298
x1 = 0.5979	897.108	893.686	890.251	886.802	883.336	1371.3	1354.1	1337.1	1320.3	1303.8
x1 = 0.6483	901.8	898.401	894.993	891.566	888.123	1377.6	1360.3	1343.3	1326.5	1310
x1 = 0.6971	906.089	902.72	899.338	895.935	892.514	1383.8	1366.4	1349.3	1332.5	1315.9
x1 = 0.7444	910.065	906.721	903.359	899.982	896.583	1389.8	1372.2	1355	1338.1	1321.6
x1 = 0.7997	914.585	911.263	907.929	904.583	901.213	1397.4	1379.5	1362	1345	1328.3
x1 = 0.8466	918.226	914.903	911.586	908.265	904.921	1404.4	1386	1368.2	1350.9	1334.1
x1 = 0.901	922.256	918.92	915.606	912.298	908.979	1413	1394	1375.7	1358	1341
x1 = 0.9495	925.7	922.407	919.075	915.767	912.465	1421.1	1401.3	1382.5	1364.4	1347
x1 = 1	928.794	925.509	922.217	918.88	915.567	1431.5	1410.3	1390.4	1371.5	1353.6
